Key:
[1] = biological target: T1, MMP-8 (Homo sapiens, UniProt P22894); assay: Direct inhibition of MMP-8, fluorogenic substrate hydrolysis assay; format: biochemical; settings: for IC50 / ΔY (efficacy of MMP-8 inhibition): Tris-buffered saline, 10 mM CaCl2, 1 µM ZnCl2, pH 7.5, 37 °C; for IC50: error ± 1 SD, read-out: IC50 (potency of MMP-8 inhibition); for ΔY (efficacy of MMP-8 inhibition): from dose-response regression
T1 construct: purchased R&D Systems (Minneapolis, MN, USA)
Experimental: NSGMs were screened for the inhibition of MMP-8 using a fluorogenic substrate assay, as described earlier. Briefly, 100 µg/mL pro-MMP-8 was activated by incubating with 1mM p-aminomercuric acetate at 37 °C for 1 hr. Activated MMP-8 (10 nM, final) was then incubated with NSGMs (100 µM, final) in Tris-buffered saline containing 10 mM CaCl2,1 µM ZnCl2, pH 7.5 for 10 min at 37 °C. Residual MMP-8 activity was measured by adding the fluorogenic substrate (DNP-Pro-Leu-Ala- Tyr-Trp-Ala-Arg, 20 µM, final) and monitoring initial linear rate of increase in fluorescence. IC50s were calculated using the following equation, Y=Y0+YM−Y0/1+10^(log[I]0−logIC50)×HS . Y is the ratio of residual enzyme activity in the presence of NSGM to that in its absence, Y0 and YM are the minimal and maximal values of Y, respectively, obtained following regression, and HS is the Hill slope of inhibition.

[2] = biological target: T2, MMP-9 (Homo sapiens, UniProt P14780); assay: MMP-9 inhibitor screening assay kit (Abcam #ab139448); format: biochemical; settings: NSGM 100 µM; read-out: MMP-9 inhibition in screen
T2 construct: purchased Abcam (Cambridge, UK) ab139448
Experimental: Screening of sulfated benzofurans and quinazolinones (100 µM, final) against MMP-9 was performed using a commercially available assay kit (Abcam catalog #ab139448) following manufacturer’s protocol. All experiments were performed at least twice in duplicates.

[3] = NSGM 100 µM, MMP-8 10 nM, pH 7.5, 37 °C

T1 sequence (P22894 101-467): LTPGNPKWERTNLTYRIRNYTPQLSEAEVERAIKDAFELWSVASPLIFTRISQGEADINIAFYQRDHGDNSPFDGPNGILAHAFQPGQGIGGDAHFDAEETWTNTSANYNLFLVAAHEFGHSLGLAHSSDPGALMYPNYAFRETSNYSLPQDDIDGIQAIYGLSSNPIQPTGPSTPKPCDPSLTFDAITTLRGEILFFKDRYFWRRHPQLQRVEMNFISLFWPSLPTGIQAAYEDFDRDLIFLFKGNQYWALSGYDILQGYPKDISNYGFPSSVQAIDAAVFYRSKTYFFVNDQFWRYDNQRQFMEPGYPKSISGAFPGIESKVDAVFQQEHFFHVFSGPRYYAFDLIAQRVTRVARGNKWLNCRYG
T2 sequence (P14780 107-444 limits assumed): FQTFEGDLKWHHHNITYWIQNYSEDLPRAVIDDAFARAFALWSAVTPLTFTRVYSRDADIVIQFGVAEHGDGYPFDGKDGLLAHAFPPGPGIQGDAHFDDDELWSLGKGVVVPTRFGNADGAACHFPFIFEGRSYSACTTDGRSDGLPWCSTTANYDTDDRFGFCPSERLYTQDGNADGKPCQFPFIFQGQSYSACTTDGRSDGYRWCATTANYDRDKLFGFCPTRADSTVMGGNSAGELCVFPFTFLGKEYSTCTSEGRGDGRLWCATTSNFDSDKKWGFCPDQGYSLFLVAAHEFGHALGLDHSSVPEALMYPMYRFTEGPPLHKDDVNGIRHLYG

Row | Structure (SMILES) | MMP-8 inhibition in library screen (result in words) [1, 3] | inhibition at 100 µM [2] | MMP-8 inhibition in library screen [1, 3] | IC50 [1] | ΔY (efficacy of MMP-8 inhibition) [1]
1 | CCOC(=O)c1c(C)oc2cc(OCC3CCCCC3)c(OCc3oc4cc(OCC5CCCCC5)c(OS(=O)(=O)O)cc4c3C(=O)OCC)cc12 [NSGM 29] | did not inhibit MMP-8 | > 80% |  |  | 
2 | O=c1c2ccccc2nc(-c2ccc(OS(=O)(=O)O)cc2)n1CCCCCCCCCn1cc(Cn2c(-c3ccc(OS(=O)(=O)O)cc3)nc3ccccc3c2=O)nn1 [NSGM 40] |  |  | > 80% | 25 ± 1 µM | 100 ± 2%
3 | O=c1c2ccccc2nc(-c2ccc(OS(=O)(=O)O)cc2)n1CCCCCCCCCCn1cc(Cn2c(-c3ccc(OS(=O)(=O)O)cc3)nc3ccccc3c2=O)nn1 [NSGM 41] |  |  | > 80% | 15 ± 1 µM | 97 ± 2%
4 | O=c1c2ccccc2nc(-c2ccc(OS(=O)(=O)O)cc2)n1CCCCCCCCCCCCn1cc(Cn2c(-c3ccc(OS(=O)(=O)O)cc3)nc3ccccc3c2=O)nn1 [NSGM 42] |  |  | > 80% | 34 ± 4 µM | 98 ± 8%

— paper PMC7465109, “Discovery of Sulfated Small Molecule Inhibitors of Matrix Metalloproteinase-8” (Biomolecules, 2020)
